Experimental data: US7897620B2, “Methods of using anti-inflammatory compounds” (Cambridge Enterprise Limited, priority 2007, dated 2011)
Like-named read-outs stand apart in the source and are kept apart here.

Experiments:
[1] = tested on: MCP-1 induced THP-1 cell migration; experiment: ChemoTx transwell migration assay, MCP-1 induced migration of THP-1 cells; assay type: cell-based; details: Homo sapiens
Protocol: (§1) In principle, this assay consists of two chambers separated by a porous membrane. The chemoattractant is placed in the lower compartment and the cells are placed in the upper compartment. After incubation for a period at 37° C. the cells move towards the chemoattractant, and the number of cells in the lower compartment is proportional to the chemoattractant activity (relative to a series of controls).
(§2) The THP-1 cell line (European Cell Culture Collection) were used as the leukocyte cell population.
(§3) First, the cell suspension to be placed in the upper compartment is prepared. The THP-1 cells are pelleted by centrifugation (770×g; 4 mins) and washed with Geys Balanced Salt Solution with 1 mg/ml BSA (GBSS+BSA). This wash is then repeated, and the cells repelleted before being resuspended in a small volume of GBSS+BSA for counting, for example using a standard haemocytometer.
(§4) The volume of GBSS+BSA is then adjusted depending on the number of cells present so that the cells are at final density of 4.45×10^6 cells per ml of GBSS+BSA. This ensures that there are […] THP-1 cells in each 25 μl of the solution that will be placed in the upper chamber of the plate.
To test a single compound for its ability to inhibit chemokine induced migration, it is necessary to prepare two lots of cells. The suspension of THP-1 cells at 4.45×10^6 cells/ml is divided into two pots. To one pot the inhibitor under test is added at an appropriate final concentration, in an appropriate vehicle (for example at 1 μM in not more than 1% DMSO). To the second pot an equal volume of GBSS+BSA plus vehicle as appropriate (e.g. not more than 1% DMSO) is added to act as a control.
(§5) Next, the chemoattractant solution to be placed in the lower compartment is prepared. For example, MCP-1 is diluted in GBSS+BSA to give a final concentration of 25 ng/ml. This is divided into two pots, as for the cell suspension. To one pot, the test compound is added to the same final concentration as was added to the cell suspension, while to the other pot an equal volume of GBSS+BSA plus vehicle as appropriate (e,g. not more than 1% DMSO) is added. Alternatively, other chemokines may be used (SDF-1α at 7.5 ng/ml; RANTES at 50 ng/ml; IL-8 at 10 ng/ml using neutrophils as the target cell population). In each case it is important to determine (in a separate experiment) the concentration of each chemokine which causes maximal stimulation of migration of the chosen target leukocyte population. This maximal concentration must then be used in experiments to test the inhibitory activity of the compounds of the invention.
Once the chemoattractant solutions for the lower wells and cell solutions for the upper chambers have been prepared, the migration chamber should be assembled. Place 29 μl of the appropriate chemoattractant solution into the lower well of the chamber. Assays should be performed with at least triplicate determinations of each condition. Once all the lower chambers have been filled, apply the porous membrane to the chamber in accordance with the manufacturer's instructions. Finally, apply 25 μl of the appropriate cell solution to each upper chamber. A plastic lid is placed over the entire apparatus to prevent evaporation.
The assembled chamber is incubated at 37° C., 5% CO2, for 2 hours. A suspension of cells in GBSS+BSA is also incubated under identical conditions in a tube: these cells will be used to construct a standard curve for determining the number of cells that have migrated to the lower chamber under each condition.
At the end of the incubation, the liquid cell suspension is gently removed from the upper chamber, and 20 μl of ice-cold 20 mM EDTA in PBS is added to the upper chamber, and the apparatus is incubated at 4° C. for 15 mins. This procedure causes any cells adhering to the underside of the membrane to fall into the lower chamber.
After this incubation the filter is carefully flushed with GBSS+BSA to wash off the EDTA, and then the filter is removed. […]

[2] = tested on: SDF-1α induced THP-1 cell migration; experiment: ChemoTx transwell migration assay, SDF-1α induced migration of THP-1 cells; assay type: cell-based; details: Homo sapiens, maximal dose of chemoattractant, read-out: ED50 SDF-1α
Protocol: as §1, §2, §3, §4
To test a single compound for its ability to inhibit chemokine induced migration, it is necessary to prepare two lots of cells. The suspension of THP-1 cells at 4.45×10^6 cells/ml is divided into two pots. […]

[3] = tested on: IL-8 induced neutrophil migration; experiment: ChemoTx transwell migration assay, IL-8 induced migration of neutrophils; assay type: cell-based; details: maximal dose of chemoattractant, read-out: ED50 IL-8 neutrophils
Protocol: as §1
as §5, with “This maximal concentration must then be used in experiments to test the inhibitory activity of the compounds of the invention.” left out
The number of cells migrated into the lower chamber under each condition can then be determined by a number of methods, including direct counting, labelling with fluorescent or radioactive markers or through the use of a vital dye. […] 3 μl of stock MTT solution are added to each well, and then the plate is incubated at 37° C. for 1-2 hours during which time dehydrogenase enzymes within the cells convert the soluble MTT to an insoluble blue formazan product that can be quantified spectrophotometrically. […]
At the end of this incubation, the liquid is carefully removed from the lower chambers, taking care not to disturb the precipitated formazan product. After allowing to air dry briefly, 20 μl of DMSO is added to each lower chamber to solubilise the blue dye, and absorbance at 595 nm is determined using a 96-well plate reader. […]

[4] = Distribution of compounds into tissues and unchanged parent in urine 24 hrs after a single oral dose; assay type: in vivo; details: rat; for concentration at 24 h: 24 hrs after single oral dose 3 mg/kg in 1% CMC, nd = not detected, LLOQ 2.4 ng/g
Protocol: Urine was collected from rats exposed to a single oral dose (3 mg/kg in 1% CMC) of each compound over a 24 hour period in metabolic cages. The pooled urine sample was then subjected to full scan mass spectral analysis, using the same LC-MS conditions as described in example 1 above. Further MS-MS analysis of the product ions was then performed, and likely fragmentations/re-arrangements assigned from the publicly available Metabolite ID database.
To provide a quantitative estimate of the degree of metabolism suffered by each of the compounds tested, the amount of unchanged parent compound in urine was measured using the same validated LC-MS assay described in example 1, using (S)-3-(2′,2′-dimethylpropanoylamino)-caprolactam as an internal standard. In addition, the level of compounds in various target tissues was also determined.

[5] = Pharmacokinetics following a single dose in dog (crossover iv / per os); assay type: in vivo; details: plasma; for Vd: read-out: Vss
Protocol: In a separate experiment, (I′) was compared with the second best compound (V) for pharmacokinetic parameters in a different (non-rodent) species, the dog. Single doses (1 mg/kg in 5% DMSO intravenously or 3 mg/kg in 1% CMC per os) were administered to a single dog for each compound in a simple crossover design with 1 week washout between the two routes of administration.

[6] = THP-1 cells, maximal dose of chemoattractant, read-out: ED50 MCP-1
[7] = THP-1 migration inhibition, Table 5, read-out: Functional ED50 versus MCP-1

Row | SMILES | EC50 [1, 6] [nM] | EC50 [1, 7] [nM] | EC50 [2] [nM] | EC50 [3] [nM] | fraction of the injected dose recovered unchanged in urine ([4]; 24 hrs, single oral dose 3 mg/kg) | clearance ([5]; Intravenous PK (1 mg/kg)) [mL/min/kg] | half-life ([5]; Intravenous PK (1 mg/kg)) [h] | Vd ([5]; Intravenous PK (1 mg/kg)) [L/kg] | AUC ([5]; Oral PK (3 mg/kg)) [ng·h/mL] | Tmax ([5]; Oral PK (3 mg/kg)) [h] | bioavailability ([5]; Oral PK (3 mg/kg)) [%] | half-life ([5]; Oral PK (3 mg/kg)) [h] | concentration at 24 h ([4]; brain, read-out: Level of compound in Brain) [ng/g] | concentration at 24 h ([4]; heart, read-out: Level of compound in Heart) [ng/g] | concentration at 24 h ([4]; kidney, read-out: Level of compound in Kidney) [ng/g] | concentration at 24 h ([4]; liver, read-out: Level of compound in Liver) [ng/g] | concentration at 24 h ([4]; lung, read-out: Level of compound in Lung) [ng/g] | concentration at 24 h ([4]; muscle, read-out: Level of compound in Muscle) [ng/g]
1 | O=C1NCCCC[C@@H]1NC(=O)C12CC3CC(CC(C3)C1)C2 [(II), 3-(adamantane-1-carbonylamino)-caprolactam] | 0.08 | 0.08 | 0.1 | 0.6 | – | – | – | – | – | – | – | – | – | – | – | – | – | –
2 | CC(C)(C)S(=O)(=O)N[C@H]1CCCCNC1=O [(IV), 3-(1′,1′-dimethylethylsulfonylamino)-caprolactam] | 0.8 | 0.8 | – | – | less than 10% | – | – | – | – | – | – | – | – | – | – | – | – | –
3 | O=C1NCCCC[C@@H]1NC(=O)C12CC3CC(CC(O)(C3)C1)C2 [(V), 3-(3′-hydroxyadamantyl-1-carbonylamino)-caprolactam] | – | – | 0.2 | 0.5 | – | 7.4 | 1.1 | 0.6 | 4000 | 1 | 59 | 1.12 | – | – | – | – | – | –
4 | CC(C)(C)C(=O)N[C@H]1CCCNC1=O [Compound (I′), 3-(2′,2′-dimethylpropanoylamino)-tetrahydropyridin-2-one] | – | – | – | 0.6 | – | 1.9 | 3.93 | 0.6 | 20200 | 1 | 75 | 3.62 | 1.6 | 5.3 | 5.1 | 3.6 | 21.9 | 3.1
